Reference: PubChem BioAssay AID248 (DTP/NCI, 2004)
Values joined by “and” are separate entries in the source; they are usually repeats but may differ in a detail not shown here. Identical values can stand only once. Inconclusive results and toxic doses are left out. Cut-off read from the data, not from the text of the source: active = T/C of 150% or more; inactive = T/C below 125%.

Test system: L1210 leukemia ip in BDF1 mice, survival T/C
Assay: NCI In Vivo Anticancer Drug Screen. Data for tumor model L1210 Leukemia (intraperitoneal) in B6D2F1 (BDF1) mice
Conditions: endpoint: mean survival time, higher = longer survival
In short: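 Transplantable tumor model; survival measured in treated vs vehicle control mice. Value = treated/control.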

[1] = dose: 100.0 mg/kg/injection, schedule: Q01DX001 (ip), vehicle: Klucel (hydroxypropylcellulose) (HPC)
[2] = dose: 200.0 mg/kg/injection, schedule: Q01DX001 (ip), vehicle: Klucel (hydroxypropylcellulose) (HPC)
[3] = dose: 400.0 mg/kg/injection, schedule: Q01DX001 (ip), vehicle: Klucel (hydroxypropylcellulose) (HPC)
[4] = dose: 100.0 mg/kg/injection, schedule: Q04DX002 (ip), vehicle: Klucel (hydroxypropylcellulose) (HPC)
[5] = dose: 200.0 mg/kg/injection, schedule: Q04DX002 (ip), vehicle: Klucel (hydroxypropylcellulose) (HPC)
[6] = dose: 400.0 mg/kg/injection, schedule: Q04DX002 (ip), vehicle: Klucel (hydroxypropylcellulose) (HPC)
[7] = dose: 100.0 mg/kg/injection, schedule: Q01DX009 (ip), vehicle: saline with Tween-80
[8] = dose: 200.0 mg/kg/injection, schedule: Q01DX009 (ip), vehicle: saline with Tween-80
[9] = dose: 400.0 mg/kg/injection, schedule: Q01DX009 (ip), vehicle: saline with Tween-80
[10] = dose: 100.0 mg/kg/injection, schedule: Q04DX003 (ip), vehicle: acetone
[11] = dose: 200.0 mg/kg/injection, schedule: Q04DX003 (ip), vehicle: acetone
[12] = dose: 50.0 mg/kg/injection, schedule: Q01DX009 (ip), vehicle: saline with Tween-80
[13] = dose: 100.0 mg/kg/injection, schedule: Q01DX001 (ip), vehicle: saline
[14] = dose: 200.0 mg/kg/injection, schedule: Q01DX001 (ip), vehicle: saline
[15] = dose: 400.0 mg/kg/injection, schedule: Q01DX001 (ip), vehicle: saline
[16] = dose: 100.0 mg/kg/injection, schedule: Q04DX003 (ip), vehicle: saline

Measured: T/C

CCOC(=O)c1[nH]c(C)c(C(=O)OCC)c1-c1ccc(OC)cc1
inactive: [1] 100 % of control | dose: 100.0 mg/kg/injection, schedule: Q04DX003 (ip), vehicle: Klucel (hydroxypropylcellulose) (HPC) 96 % of control | [2] 93 % of control | dose: 200.0 mg/kg/injection, schedule: Q04DX003 (ip), vehicle: Klucel (hydroxypropylcellulose) (HPC) 108 % of control | [3] 98 % of control | dose: 400.0 mg/kg/injection, schedule: Q04DX003 (ip), vehicle: Klucel (hydroxypropylcellulose) (HPC) 96 % of control

COc1ccc(C(O)c2cc3ccccc3n2S(=O)(=O)c2ccccc2)cc1 (stereo unspecified)
inactive: [4] 95 % of control | [5] 106 % of control | [6] 98 % of control

Cc1cccc(C)c1NC(=O)c1ccccc1Cl
inactive: [7] 104 % of control | [8] 97 % of control | [9] 104 % of control

O=S(c1ccc(Cl)cc1)N(OCc1ccccc1)S(=O)c1ccc(Cl)cc1 (stereo unspecified)
inactive: dose: 50.0 mg/kg/injection, schedule: Q01DX001 (ip), vehicle: Klucel (hydroxypropylcellulose) (HPC) 107 % of control | [1] 100 % of control | [2] 100 % of control

O=S(=O)(c1ccccc1)N1CCOC1=S
inactive: [10] 93 % of control | [11] 101 % of control | dose: 400.0 mg/kg/injection, schedule: Q04DX003 (ip), vehicle: acetone 93 % of control

CC(C)c1cc[n+]([O-])cc1
inactive: [12] 94 % of control | [7] 94 % of control | [8] 91 % of control

Cc1ccc([N+](=O)[O-])cc1NC(=O)NC(=O)c1ccccc1
inactive: [4] 92 % of control | [5] 95 % of control | [6] 97 % of control

CCOP(=O)(OCC)C(CC=C(C)C)C(C)=O (stereo unspecified)
inactive: [12] 100 % of control | [7] 94 % of control | [8] 88 % of control

S=c1nc[nH]c2c1N=CNN2
inactive: dose: 5.0 mg/kg/injection, schedule: Q01DX001 (ip), vehicle: carboxymethylcellulose (CMC) 115 % of control | dose: 10.0 mg/kg/injection, schedule: Q01DX001 (ip), vehicle: carboxymethylcellulose (CMC) 90 % of control | dose: 20.0 mg/kg/injection, schedule: Q01DX001 (ip), vehicle: carboxymethylcellulose (CMC) 101 % of control | dose: 40.0 mg/kg/injection, schedule: Q01DX001 (ip), vehicle: carboxymethylcellulose (CMC) 96 % of control

COCCN1CCC(CO)C1 (stereo unspecified)
inactive: [13] 93 % of control | [14] 98 % of control | [15] 93 % of control

O=CNc1ccc2c3c(cccc13)CC2
inactive: [1] 101 % of control | [2] 93 % of control | [3] 108 % of control

O=C1NC2CC=CCC12 (stereo unspecified)
inactive: [7] 91 % of control | [16] 101 % of control | [8] 89 % of control | dose: 200.0 mg/kg/injection, schedule: Q04DX003 (ip), vehicle: saline 101 % of control | [9] 89 % of control | dose: 400.0 mg/kg/injection, schedule: Q04DX003 (ip), vehicle: saline 94 % of control

NC(=O)c1ccc(O)cc1
inactive: dose: 100.0 mg/kg/injection, schedule: Q01DX001 (ip), vehicle: carboxymethylcellulose (CMC) 92 % of control | dose: 200.0 mg/kg/injection, schedule: Q01DX001 (ip), vehicle: carboxymethylcellulose (CMC) 92 % of control | dose: 400.0 mg/kg/injection, schedule: Q01DX001 (ip), vehicle: carboxymethylcellulose (CMC) 89 % of control

Nc1nc2ccccc2n1C1OC(CO)C(O)C1O (stereo unspecified)
inactive: [13] 101 % of control | [14] 95 % of control | [15] 104 % of control

C/C=C\c1ccc(OC(=O)NCCC)c(OC)c1
inactive: [7] 95 % of control and 97 % of control | [4] 100 % of control | dose: 100.0 mg/kg/injection, schedule: Q04DX002 (ip), vehicle: saline with Tween-80 102 % of control and 106 % of control | dose: 100.0 mg/kg/injection, schedule: Q04DX003 (ip), vehicle: saline with Tween-80 97 % of control | [8] 95 % of control and 97 % of control | [5] 113 % of control | dose: 200.0 mg/kg/injection, schedule: Q04DX002 (ip), vehicle: saline with Tween-80 105 % of control and 112 % of control | dose: 200.0 mg/kg/injection, schedule: Q04DX003 (ip), vehicle: saline with Tween-80 87 % of control | [9] 97 % of control | [6] 95 % of control | dose: 400.0 mg/kg/injection, schedule: Q04DX002 (ip), vehicle: saline with Tween-80 94 % of control and 106 % of control | dose: 400.0 mg/kg/injection, schedule: Q04DX003 (ip), vehicle: saline with Tween-80 102 % of control

CCN(CCCl)c1ccc(/C=C/C2=[N+](C)c3ccccc3C2(C)C)c(C)c1
inactive: dose: 0.78 mg/kg/injection, schedule: Q01DX009 (ip), vehicle: saline 106 % of control | dose: 1.56 mg/kg/injection, schedule: Q01DX009 (ip), vehicle: saline 97 % of control | dose: 3.13 mg/kg/injection, schedule: Q01DX009 (ip), vehicle: saline 112 % of control | dose: 6.25 mg/kg/injection, schedule: Q04DX003 (ip), vehicle: saline 96 % of control | dose: 12.5 mg/kg/injection, schedule: Q04DX003 (ip), vehicle: saline 86 % of control

O=C(/C=C/C=C/C=C/C=C/C(=O)N1CCCCC1)N1CCCCC1
inactive: [13] 97 % of control | [14] 92 % of control | [15] 89 % of control

Cc1ccc(-n2ccnc2C)c(N=Cc2ccc(N(CCCl)CCCl)cc2C)c1
inactive: [4] 98 % of control | [5] 102 % of control | [6] 106 % of control

N#CC(Cl)(Cl)CCl
inactive: dose: 12.0 mg/kg/injection, schedule: Q04DX003 (ip), vehicle: saline 105 % of control | dose: 25.0 mg/kg/injection, schedule: Q04DX003 (ip), vehicle: saline 96 % of control | dose: 50.0 mg/kg/injection, schedule: Q04DX003 (ip), vehicle: saline 96 % of control | [16] 103 % of control and 105 % of control

OC1OC(COCc2ccccc2)C(OCc2ccccc2)C1OCc1ccccc1 (stereo unspecified)
inactive: dose: 100.0 mg/kg/injection, schedule: Q01DX001 (ip), vehicle: saline with Tween-80 95 % of control | dose: 200.0 mg/kg/injection, schedule: Q01DX001 (ip), vehicle: saline with Tween-80 95 % of control

O=C(CI)OCC#CCOC(=O)CI
inactive: dose: 12.5 mg/kg/injection, schedule: Q01DX001 (ip), vehicle: carboxymethylcellulose (CMC) 98 % of control | dose: 12.5 mg/kg/injection, schedule: Q01DX009 (ip), vehicle: carboxymethylcellulose (CMC) 90 % of control and 92 % of control | dose: 12.5 mg/kg/injection, schedule: Q04DX002 (ip), vehicle: carboxymethylcellulose (CMC) 104 % of control and 110 % of control | dose: 12.5 mg/kg/injection, schedule: Q04DX003 (ip), vehicle: carboxymethylcellulose (CMC) 95 % of control | dose: 25.0 mg/kg/injection, schedule: Q01DX001 (ip), vehicle: carboxymethylcellulose (CMC) 103 % of control | dose: 25.0 mg/kg/injection, schedule: Q01DX009 (ip), vehicle: carboxymethylcellulose (CMC) 86 % of control | dose: 25.0 mg/kg/injection, schedule: Q04DX002 (ip), vehicle: carboxymethylcellulose (CMC) 98 % of control | dose: 25.0 mg/kg/injection, schedule: Q04DX003 (ip), vehicle: carboxymethylcellulose (CMC) 103 % of control | dose: 50.0 mg/kg/injection, schedule: Q01DX001 (ip), vehicle: carboxymethylcellulose (CMC) 92 % of control | dose: 50.0 mg/kg/injection, schedule: Q04DX002 (ip), vehicle: carboxymethylcellulose (CMC) 97 % of control and 103 % of control | dose: 50.0 mg/kg/injection, schedule: Q04DX003 (ip), vehicle: carboxymethylcellulose (CMC) 94 % of control

CC(C)c1cc2c(cc1O)C1(C)CCCC(C)(C(=O)O)C1CC2 (stereo unspecified)
inactive: dose: 50.0 mg/kg/injection, schedule: Q04DX003 (ip), vehicle: acetone 87 % of control | dose: 100.0 mg/kg/injection, schedule: Q01DX001 (ip), vehicle: acetone 97 % of control | [10] 90 % of control | dose: 200.0 mg/kg/injection, schedule: Q01DX001 (ip), vehicle: acetone 92 % of control | [11] 89 % of control

OCCN(CC1C(c2ccccc2)C1c1ccccc1)C1CCCCC1 (stereo unspecified)
inactive: dose: 6.25 mg/kg/injection, schedule: Q04DX002 (ip), vehicle: Klucel (hydroxypropylcellulose) (HPC) 98 % of control | dose: 25.0 mg/kg/injection, schedule: Q04DX002 (ip), vehicle: Klucel (hydroxypropylcellulose) (HPC) 90 % of control | dose: 50.0 mg/kg/injection, schedule: Q04DX002 (ip), vehicle: Klucel (hydroxypropylcellulose) (HPC) 97 % of control | [4] 97 % of control

CCCCCCCc1ccc(N=Cc2ccc(OCCC)cc2)cc1
inactive: [7] 100 % of control | [8] 87 % of control | [9] 86 % of control
